Experimental data from paper PMC7475246, “Unravelling the effect of two herbicide resistance mutations on acetolactate synthase kinetics and growth traits” (Journal of Experimental Botany, 2020).

Tested on: T1, acetolactate synthase (ALS; AHAS), ALS1 and ALS2
T1 construct: native enzyme, partially purified by ammonium sulfate precipitation from young shoots (three- to four-leaf stage); mixture of ALS1 and ALS2
Assay: in vitro ALS activity, colorimetric acetoin assay at […] nm
Format: biochemical, Alopecurus aequalis
Details: 37 °C, 60 min; pH 7.5 HEPES, MgCl2, thiamine pyrophosphate, FAD; extract buffer with 200 mM pyruvate mixed 1:1 with MM; mean of three susceptible populations; read-out: I50

**Q.** Which IC50 does the source give for `COC(=O)c1ccc(CNS(C)(=O)=O)cc1S(=O)(=O)NC(=O)Nc1nc(OC)cc(OC)n1` [MM, mesosulfuron-methyl] here?
**A.** Its IC50 is 35.5 nM.
